Results as given in patent US20190084909A1, “F[…] COMPOUNDS, COMPOSITIONS AND USES THEREOF” (YISSUM RESEARCH DEVELOPMENT COMPANY OF THE HEBREW …, priority 2015, published 2019).

Experiments:
Male Swiss mice [1] = assay: Elevated plus maze (EPM), Example 9; assay type: in vivo; conditions: 10 mg/kg ip
Description: (§1) Male Swiss mice (25-30 g) originated from the Central Animal Farm of the School of Medicine of Ribeirão Preto (FMRP-USP) were maintained in groups of five animals per box (41×33×17 cm) in a temperature controlled room (24±2° C.) with a 12×12 h light-dark cycle. They received water and food ad libitum throughout the study period.
(§2) Cannabidiol (CBD; THC Pharm, 15-60 mg/kg) and HU-485 (1-10 mg/kg) were administered intraperitoneally (ip). All drugs were dissolved in 2% Tween 80 in sterile saline.
The wood-made EPM was located in a sound attenuated and temperature controlled room (23° C.), with one incandescent light (40 W) placed 1.3 m away from the maze. The apparatus consisted of two opposing open arms (30×5 cm) perpendicular to two enclosed arms (30×5×40 cm), with a central platform common to all arms (5×5 cm). The apparatus was elevated 50 cm above the ground and an acrylic edge (1 cm) surrounded the open arms to prevent animal falls. […] The test lasted for 5 min and the animal behavior was analyzed with the help of the Anymaze Software (version 4.5, Stoelting), which indicated the position of the animal in the maze and calculated the percentage of entries (Peo) and time spent in the open arms (Pto) and the number of entries in the enclosed arms (EA). […]
(§3) Results were analyzed by one-way ANOVA followed by Duncan test. […]

Male Swiss mice [2] = assay: Forced swimming test (FST), Example 9; assay type: in vivo; conditions: doses of 3 and 10 mg/kg ip; p<0.05
Description: as §1, §2
Animals were submitted to 6 min of forced swimming in glass cylinders (height 25 cm, diameter 17 cm) containing 10 cm of water at 23-25° C. Immobility time (characterized by slow movements necessary to avoid drowning) was measured during the last 4-min period. The water was changed after each trial to prevent the influence of alarm substances (Zanelati et al., 2010). Antidepressants typically decrease immobility time in this test.
Results were analyzed by one-way ANOVA followed by Duncan test. Significant level was set at p<0.05.
Animals received an injection of vehicle (V, n=7 animals/group) or HU-485 and were tested in the EPM 20 min later. Immediately after the test they were submitted to the FST for 6 min. Data represents the means±SEM of immobility time in the FST and the % of open arm entries and time spent in these arms of the EPM. * indicates difference from V group.

Male Swiss mice [3] = assay: Pre-pulse inhibition (PPI), impairment induced by amphetamine; assay type: in vivo
Description: as §1, §2
The PPI test was conducted simultaneously in two identical startle response systems (Med Associates, USA). A continuous acoustic signal provided a background white noise level of 65 dB. The pulse consists of a 105 dB white noise burst with a rise/decay of 5 ms and duration of 20 ms. The pre-pulse comprised pure 7000 Hz tones, 10 ms duration, with intensities set at 80, 85, and 90 dB. The setups were daily calibrated to ensure equal sensitivity throughout the experiments. Calibration was performed by adjusting the gain on the load cell amplifier to 150 arbitrary units (AU) at a standard weight appropriated for a 40 g mice. The limits of the load cell were −2047 to +2047 AU. Thirty min after the injection of the tested compounds mice received i.p. injections of amphetamine 10 mg/kg or vehicle. […] The first 10 pulse-alone trials allow for the within-session habituation to the startle stimulus and are not considered for PPI statistical analysis. The test consisted of 64 pseudo-random trials divided into eight different groups presented with an inter-stimulus interval of 30 s, and consisting of pulse alone (105 dB), pre-pulse alone (80, 85, or 90 dB), pre-pulse+pulse with 100 ms interval between pre-pulse and pulse, and no stimulus presented. […] Mean acoustic startle response to pulse-alone (P) trials and each pre-pulse+pulse (PP+P) trial was recorded for each subject. PPI was calculated by expressing the pre-pulse+pulse startle amplitude as a percentage of decrease from pulse-alone startle amplitude, according to the following formula: % PPI=100−[100×(PP+P/P)]. This transformation reduces statistical variability attributable to differences between animals and it is a direct PPI measure. Antipsychotic drugs typically attenuate PPI impairment induced by amphetamine.
as §3
Animals received a first injection of vehicle (V) or CBD, followed 30 min later, by vehicle (n=9) or amphetamine 10 mg/kg (V+amphetamine group=9 animals). PPI was evaluated at three-stimuli intensity (90, 85 and 80 dB). […]
Animals received a first injection of vehicle (V) or HU-485, followed 30 min later, by vehicle (n=7) or amphetamine 10 mg/kg (V+amphetamine group=7 animals). PPI was evaluated at three-stimuli intensity (90, 85 and 80 dB). […]

human CB2 = target: T1, human CB2 (Homo sapiens, UniProt P34972); assay: CB2 receptor binding assay, [3H]CP-55,940, membranes of transfected CHO cells
T1 construct: expressed in transfected cells; host or cells: CHO cells, stably transfected; crude membranes
T1 sequence (P34972 whole entry): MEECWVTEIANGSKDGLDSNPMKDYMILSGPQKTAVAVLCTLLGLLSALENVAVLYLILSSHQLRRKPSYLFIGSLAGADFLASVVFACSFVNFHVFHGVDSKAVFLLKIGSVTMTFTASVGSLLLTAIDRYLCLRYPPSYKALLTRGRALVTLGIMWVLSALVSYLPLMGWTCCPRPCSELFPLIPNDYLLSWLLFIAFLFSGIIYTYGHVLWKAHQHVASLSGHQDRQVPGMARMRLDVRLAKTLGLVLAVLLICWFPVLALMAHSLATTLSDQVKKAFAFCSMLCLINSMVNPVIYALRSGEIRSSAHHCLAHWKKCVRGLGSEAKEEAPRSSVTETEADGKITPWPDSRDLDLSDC
Description: For CB1 receptor binding assay synaptosomal membranes from rat brains were used. Sabra male rats weighing ˜200 g were decapitated and their brains, without the brain stem, were quickly removed. Synaptosomal membranes were prepared from the brains by centrifugation and sucrose density gradient ultracentrifugation after their homogenization. The CB2 receptor binding assays were performed using crude membranes obtained from Chinese hamster ovary (CHO) cells stably transfected with the human CB2 cDNA.
Bound and free radioligand were separated by centrifugation (13,000 rpm for 6 min). Non-specific binding, which was determined with 50 nM unlabelled CP-55,940, was subtracted. Binding experiments were repeated 2-3 times and each point performed in triplicate. The Ki values were determined using the GraphPad Prism program (La Jolla, Calif., USA) and the Cheng-Prusoff equation.

Row | Structure (SMILES) | number of enclosed arm entries (Male Swiss mice [1]) | percentage of time spent in the open arms of the EPM (Male Swiss mice [1]; Duncan p<0.05) | immobility time in the FST (Male Swiss mice [2]) | effect on PPI by itself (Male Swiss mice [3]; 30 mg/kg, without amphetamine) | effect on PPI impairment by amphetamine (Male Swiss mice [3]; HU-485 3, 10 and 30 mg/kg, any dose, amphetamine 10 mg/kg) | Ki (human CB2) [µM]
1 | CCCCCc1cc(O)c(C2C=C(CF)CC[C@H]2C(C)C)c(O)c1 (stereo partly drawn) [HU-485] | without changing | increased | decreased | did not impair PPI | not attenuated | 
2 | CCCCCc1cc(O)c(C2C=C(C)C(F)C[C@H]2C(C)C)c(O)c1 (stereo partly drawn) [HU-487] |  |  |  |  |  | 4 to 5
